Laboratory results: patent US5141925A, “Vivo methods for treating coccidiosis” (Trustees of Tufts College, priority 1990, dated 1992)

Legend:
E. tenella lectin = experiment: Hemagglutination inhibition assay, lectin of E. tenella sporozoite lysate (rabbit erythrocytes); format: biochemical, Eimeria tenella; settings: minimum concentration inhibiting 4 hemagglutination units of lectin; 2% rabbit erythrocytes, room temperature, 60 minutes
Source text: (§1) The lectin activity is preferably determined by a hemagglutination assay of rabbit erythrocytes. It is desirably performed in "U" well microtiter plates using lysates prepared from the parasites of interest. The sporozoites of the parasite of interest are washed three times in phosphate buffered saline (PBS), and adjusted to a concentration of 1×10^7 /ml. They are lysed by sonication in "Branson" sonicator; cleared of particulate material by filtration; and assayed for lectin activity using a conventionally known hemagglutination assay. In this assay, 2% rabbit erythrocytes in PBS are added to serial doubling dilutions of the prepared test lysate in PBS containing 2 mg/ml of bovine serum albumin (BSA) and incubated at 23° C. (i.e., room temperature) for 1 hour. Lectin titer is defined as the reciprocal of the highest agglutinating dilution as determined by direct observation, which is defined as one agglutinating unit.
(§2) Sugar specificity and characterization is determined by a standard hemagglutination inhibition assay. 2% rabbit erythrocytes are added to serial doubling dilutions of the sugar-comprising test compound in PBS containing 2 mg/ml BSA and 4 hemagglutination units of lectins; followed by incubation at room temperature for 60 minutes. The minimum inhibitory concentration of the test compound is defined as the minimum concentration which is required for inhibiting 4 hemagglutination units of lectins. The following represent examples of suitable test compounds: (1) glycoproteins such as fetuine, bovine submaxillary mucin, hog gastric mucin, and -1- acid glycoprotein; (2) monosaccharides such as arabinose, fucose, glucose, galactose, mannose, N-acetylglucosamine, and N-acetylgalactosamine and their derivatives; and (3) oligosaccharides including chitobiose and chitotetrose.

E. acervulina lectin = experiment: Hemagglutination inhibition assay, lectin of E. acervulina sporozoite lysate (rabbit erythrocytes); format: biochemical, Eimeria acervulina; settings: minimum concentration inhibiting 4 hemagglutination units of lectin; 2% rabbit erythrocytes, room temperature, 60 minutes
Source text: as §1, §2

E. tenella = experiment: Inhibition of E. tenella development in cell culture (3H uracil uptake, Schmatz et al.); format: cell-based, Eimeria tenella; settings: for Scintillation Counts (24 hr), Trial 1 / Scintillation Counts (24 hr), Trial 2: 96 hours development, mean of eight cultures
Protocol: A series of experimental assays were performed to measure the in vitro inhibition of Coccidia infections by compositions comprising at least one sugar. The inhibition assay is one developed by Schmatz et al. [J. Protozology 33:109-114 (1986)] in which inhibition of sporozoite development is correlated with a decrease in ^3 H uracil uptake by the host cells.
Sporozoites are excysted aseptically from sterile coccidis oocysts, cleaned of debris by passage through a cellulose or glass wool column, counted, and diluted to a concentration of approximately 2.5×10^5 sporozoites per ml.
(§3) The sporozoites are then pretreated for one hour in cell culture nutrient (Waymouth's MAB 87/3, without serum) containing various concentration of inhibiting sugars, such as 0.1, 1.0, and 10.0 mg/ml fetuine, before being inoculated onto 24-48 hour primary cultures of embryonic chick kidney cells prepared in 24 or 96 well plates. Treatment with the inhibiting sugar, such as fetuine, is continuous at the tested concentration during the incubation period, allowing the parasite development to proceed for 48 or 96 hours. Nutrient is changed every 48 hours. Because parasites developing in cell culture, but not the host cells, take up ^3 H uracil, add 2 u Ci to each well in a 96 well plate 18 to 24 hours beore counting by liquid scintillation. Nutrient is removed from the parasitized cell cultures which are then treated with PBS solution, pH 7.6-7.8, containing 0.5% trypsin and 0.022% EDTA to detach the cells from the culture vessel, and harvested with a PHD Cell Harvester (Cambridge Instrument) onto glass fiber filter discs. Individual discs are placed into scintillation vials with 3.5 ml Toluene (plus 5.262 grams per 4 liters of PPO [2,5-diphenyloxazole]) and samples are then counted in a Beckman scintillation counter.

E. maxima lectin = experiment: Hemagglutination inhibition assay, lectin of E. maxima sporozoite lysate (rabbit erythrocytes); format: biochemical, Eimeria maxima; settings: minimum concentration inhibiting 4 hemagglutination units of lectin; 2% rabbit erythrocytes, room temperature, 60 minutes
Source text: as §1
Sugar specificity and characterization is determined by a standard hemagglutination inhibition assay. 2% rabbit erythrocytes are added to serial doubling dilutions of the sugar-comprising test compound in PBS containing 2 mg/ml BSA and 4 hemagglutination units of lectins; followed by incubation at room temperature for 60 minutes. […]

[1] = system: embryonic chick kidney cells; experiment: 3H uracil counts of host cells with fetuin, no parasite; format: cell-based; settings: Host Cells + 15 mg/ml Fetuin, mean of eight cultures
Protocol: as §3

[2] = Host Cells + Parasite + 5 mg/ml Fetuin
[3] = Host Cells + Parasite + 10 mg/ml Fetuin
[4] = Host Cells + Parasite + 15 mg/ml Fetuin

C[C@@H]1OC(O)[C@@H](O)[C@H](O)[C@@H]1O (single isomer, unassigned) [L(-)-Fucose]
Lowest Concentration that Inhibited Lectin Agglutination, E. tenella (E. tenella lectin): 1.25 mg/mL

COC1O[C@H](CO)[C@@H](O)[C@H](O)[C@H]1O (stereo partly drawn) [1-o-CH3 -D-Glucoside]
Lowest Concentration that Inhibited Lectin Agglutination, E. tenella (E. tenella lectin): 4.1 mg/mL

O=C[C@@H](O)[C@H](O)[C@H](O)CO [Arabinose]
Lowest Concentration that Inhibited Lectin Agglutination, E. acervulina (E. acervulina lectin): 25.0 mg/mL

CC(=O)N[C@H]1[C@H](O[C@H]2[C@H](O)[C@@H](NC(C)=O)C(O)O[C@@H]2CO)O[C@H](CO)[C@@H](O[C@@H]2O[C@H](CO)[C@@H](O[C@@H]3O[C@H](CO)[C@@H](O)[C@H](O)[C@H]3NC(C)=O)[C@H](O)[C@H]2NC(C)=O)[C@@H]1O (stereo partly drawn) [Chitotetrose]
Lowest Concentration that Inhibited Lectin Agglutination, E. tenella (E. tenella lectin): 0.03 mg/mL

O=[N+]([O-])c1ccc(OC2O[C@H](CO)[C@@H](O)[C@H](O)[C@H]2O)cc1 (stereo partly drawn) [P-Nitro-o-D-Glucoside]
Lowest Concentration that Inhibited Lectin Agglutination, E. tenella (E. tenella lectin): 12.5 mg/mL

Acid Glycoprotein
Lowest Concentration that Inhibited Lectin Agglutination, E. tenella (E. tenella lectin): 1.25 mg/mL
Lowest Concentration that Inhibited Lectin Agglutination, E. acervulina (E. acervulina lectin): 0.5 mg/mL

Bovine Submaxillary Mucin [Bovine Submaxillary Mucin (BSM)]
Lowest Concentration that Inhibited Lectin Agglutination, E. tenella (E. tenella lectin): 0.083 mg/mL
Lowest Concentration that Inhibited Lectin Agglutination, E. acervulina (E. acervulina lectin): 0.03 mg/mL

Chitobiose
Lowest Concentration that Inhibited Lectin Agglutination, E. tenella (E. tenella lectin): 1.25 mg/mL

Hog Gastric Mucin
Lowest Concentration that Inhibited Lectin Agglutination, E. tenella (E. tenella lectin): 0.125 mg/mL
Lowest Concentration that Inhibited Lectin Agglutination, E. acervulina (E. acervulina lectin): 0.5 mg/mL

B1: Fetuin (protein, UniProt P12763 19-359, looked up)
Alpha-2-HS-glycoprotein: IPLDPVAGYKEPACDDPDTEQAALAAVDYINKHLPRGYKHTLNQIDSVKVWPRRPTGEVYDIEIDTLETTCHVLDPTPLANCSVRQQTQHAVEGDCDIHVLKQDGQFSVLFTKCDSSPDSAEDVRKLCPDCPLLAPLNDSRVVHAVEVALATFNAESNGSYLQLVEISRAQFVPLPVSVSVEFAVAATDCIAKEVVDPTKCNLLAEKQYGFCKGSVIQKALGGEDVRVTCTLFQTQPVIPQPQPDGAEAEAPSAVPDAAGPTPSAAGPPVASVVVGPSVVAVPLPLHRAHYDLRHTFSGVASVESSSGEAFHVGKTPIVGQPSIPGGPVRLCPGRIRYFKI
notes: glycoprotein
Lowest Concentration that Inhibited Lectin Agglutination, E. tenella (E. tenella lectin): 0.078 mg/mL
Scintillation Counts (24 hr), Trial 1 (E. tenella; [2]): 8,135.0
Scintillation Counts (24 hr), Trial 2 (E. tenella; [2]): 1,394.7
Scintillation Counts (24 hr), Trial 1 (E. tenella; [3]): 8,625.6
Scintillation Counts (24 hr), Trial 2 (E. tenella; [3]): 1,556.4
Scintillation Counts (24 hr), Trial 1 (E. tenella; [4]): 4,328.3
Scintillation Counts (24 hr), Trial 2 (E. tenella; [4]): 796.1
3H uracil uptake, inhibition of E. tennella development (in words) (E. tenella; summary of Table E2): substantial reductions
Lowest Concentration that Inhibited Lectin Agglutination, E. acervulina (E. acervulina lectin): 0.13 mg/mL
Lowest Concentration that Inhibited Lectin Agglutination, E. maxima (E. maxima lectin): 0.4 mg/mL
Scintillation Counts (24 hr), Trial 1 [1]: 7,826.4
Scintillation Counts (24 hr), Trial 2 [1]: 1,942.7
